In patent publication US4172148A, “Ruminant feeds containing trichloroethyl esters of essential amino acids” (E. R. Squibb & Sons, Inc., priority 1978, dated 1979):

Tests used:
[1] = system: volatile fatty acid concentrations in fistulated sheep; assay: volatile fatty acid concentrations in vivo in fistulated sheep, 227 g concentrate and 680 g alfalfa hay (Examples 5 and 8); details: for Acetic:propionic ratio / Other acids (%) / Butyric acid (%) / Propionic acid (%) / Acetic acid (%) / Total acids: day 7
Excerpt: (§1) Mature sheep (wethers) fitted with permanent rumen fistulae were used to determine the effect of L-phenylalanine, 2,2,2-trichloroethyl ester on volatile fatty acid concentrations in vivo (3 wethers per treatment). The animals were individually penned and fed 227 g. of concentrate (described in Example 3) and 680 g. of alfalfa hay once daily. The test compound was admixed with the concentrate. The sheep were medicated for 7 days. Samples for analysis were obtained before (Day 0) and after treatment (Day 7) approximately 6 hours after feeding.

[2] = system: volatile fatty acid concentrations in the rumen of fistulated wethers; assay: volatile fatty acid concentrations in the rumen of fistulated wethers, 454 g concentrate and 454 g chopped mixed hay (Example 6); format: in vivo, sheep; details: for Acetic:propionic ratio / Other acids (%) / Propionic acid (%) / Butyric acid (%) / Acetic acid (%) / Total acids: day 7
Excerpt: as §1
An experiment similar to that described in Example 5 was performed except that the animals (3 per treatment) were fed 454 g. of concentrate (described in Example 3) and 454 g. of chopped mixed (grasses) hay.

Br.N[C@@H](Cc1ccccc1)C(=O)OCC(Cl)(Cl)Cl [L-Phenylalanine 2,2,2-trichloroethyl ester, hydrobromide]
Acetic:propionic ratio ([1]; 200 mg/head/day, pretreatment 3.52, control day 7 3.56): 3.11
Other acids (%) ([1]; 200 mg/head/day, pretreatment 5.4, control day 7 5.5): 5.8%
Butyric acid (%) ([1]; 200 mg/head/day, pretreatment 12.8, control day 7 15.5): 15.1%
Propionic acid (%) ([1]; 200 mg/head/day, pretreatment 18.2, control day 7 17.4): 19.3%
Acetic acid (%) ([1]; 200 mg/head/day, pretreatment 63.7, control day 7 61.6): 59.7%
Total acids ([1]; 200 mg/head/day, pretreatment 657, control day 7 698): 667 mg/100 ml.
Acetic:propionic ratio ([1]; 500 mg/head/day, pretreatment 3.39, control day 7 3.56): 2.43
Other acids (%) ([1]; 500 mg/head/day, pretreatment 5.7, control day 7 5.5): 8.1%
Butyric acid (%) ([1]; 500 mg/head/day, pretreatment 12.7, control day 7 15.5): 18.0%
Propionic acid (%) ([1]; 500 mg/head/day, pretreatment 18.6, control day 7 17.4): 21.5%
Acetic acid (%) ([1]; 500 mg/head/day, pretreatment 63.1, control day 7 61.6): 52.5%
Total acids ([1]; 500 mg/head/day, pretreatment 614, control day 7 698): 624 mg/100 ml.
effect on acetic:propionic ratio (in words) ([1]; fistulated sheep, 7 days): decreased the acetic:propionic ratio
effect on proportion of propionic acid (in words) ([1]; fistulated sheep, 7 days): increased the proportion of propionic acid
Acetic:propionic ratio ([2]; 200 mg/head/day, pre-treatment 3.38, control day 7 3.54): 2.65
Other acids (%) ([2]; 200 mg/head/day, pre-treatment 5.2, control day 7 6.6): 8.2%
Propionic acid (%) ([2]; 200 mg/head/day, pre-treatment 17.5, control day 7 16.2): 19.0%
Butyric acid (%) ([2]; 200 mg/head/day, pre-treatment 18.4, control day 7 20.0): 22.5%
Acetic acid (%) ([2]; 200 mg/head/day, pre-treatment 58.8, control day 7 57.3): 50.3%
Total acids ([2]; 200 mg/head/day, pre-treatment 731, control day 7 687): 663 mg/100 ml
Acetic:propionic ratio ([2]; 500 mg/head/day, pre-treatment 3.43, control day 7 3.54): 2.18
Other acids (%) ([2]; 500 mg/head/day, pre-treatment 6.7, control day 7 6.6): 9.8%
Propionic acid (%) ([2]; 500 mg/head/day, pre-treatment 16.8, control day 7 16.2): 21.1%
Butyric acid (%) ([2]; 500 mg/head/day, pre-treatment 19.0, control day 7 20.0): 23.5%
Acetic acid (%) ([2]; 500 mg/head/day, pre-treatment 57.5, control day 7 57.3): 45.7%
Total acids ([2]; 500 mg/head/day, pre-treatment 851, control day 7 687): 734 mg/100 ml
effect on acetic:propionic ratio (in words) ([2]; fistulated wethers, 7 days): decreasing the acetic:propionic ratio
effect on proportion of propionic acid (in words) ([2]; fistulated wethers, 7 days): effective in increasing the proportion of propionic acid
